How the values were obtained:
NIH3T3 = assay: Inhibition of serum-stimulated proliferation of mouse NIH3T3 cell line after 24 hrs; assay type: functional, cell-based; details: NIH3T3, 24 h
[1] = biological target: Epidermal growth factor receptor (Homo sapiens, UniProt P00533); assay: Inhibition of EGFR tyrosine kinase
Epidermal growth factor receptor, sequence (P00533 whole entry): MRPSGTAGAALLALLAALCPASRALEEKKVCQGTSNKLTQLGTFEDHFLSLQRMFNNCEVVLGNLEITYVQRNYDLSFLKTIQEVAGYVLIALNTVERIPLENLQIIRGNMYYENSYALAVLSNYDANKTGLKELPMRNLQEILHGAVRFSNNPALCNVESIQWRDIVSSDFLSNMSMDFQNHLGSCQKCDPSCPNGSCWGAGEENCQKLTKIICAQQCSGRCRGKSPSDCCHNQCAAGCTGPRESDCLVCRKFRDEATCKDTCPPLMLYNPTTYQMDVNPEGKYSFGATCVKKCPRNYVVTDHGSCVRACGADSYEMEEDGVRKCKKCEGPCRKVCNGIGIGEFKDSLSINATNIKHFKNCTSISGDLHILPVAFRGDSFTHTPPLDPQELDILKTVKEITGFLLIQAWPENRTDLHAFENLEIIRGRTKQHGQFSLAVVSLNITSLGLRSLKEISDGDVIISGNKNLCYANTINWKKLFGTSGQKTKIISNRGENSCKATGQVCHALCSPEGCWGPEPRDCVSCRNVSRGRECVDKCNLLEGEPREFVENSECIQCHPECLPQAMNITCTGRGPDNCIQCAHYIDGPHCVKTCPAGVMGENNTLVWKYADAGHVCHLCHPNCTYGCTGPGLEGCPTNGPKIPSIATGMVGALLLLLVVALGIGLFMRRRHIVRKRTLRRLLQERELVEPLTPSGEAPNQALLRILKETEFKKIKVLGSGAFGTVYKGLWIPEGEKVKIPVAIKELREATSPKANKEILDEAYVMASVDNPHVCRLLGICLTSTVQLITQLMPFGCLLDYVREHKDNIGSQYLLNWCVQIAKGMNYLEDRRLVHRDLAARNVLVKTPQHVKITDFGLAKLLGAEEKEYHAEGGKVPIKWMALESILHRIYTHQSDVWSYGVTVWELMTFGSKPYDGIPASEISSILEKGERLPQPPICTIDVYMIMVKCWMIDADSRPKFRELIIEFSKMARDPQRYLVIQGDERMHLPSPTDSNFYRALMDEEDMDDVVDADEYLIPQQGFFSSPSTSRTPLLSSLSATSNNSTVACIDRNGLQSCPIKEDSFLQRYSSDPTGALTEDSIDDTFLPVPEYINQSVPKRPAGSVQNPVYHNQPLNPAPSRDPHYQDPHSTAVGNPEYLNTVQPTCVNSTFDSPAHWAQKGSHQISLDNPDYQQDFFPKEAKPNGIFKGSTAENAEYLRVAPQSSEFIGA

SMILES | IC50 (NIH3T3) | IC50 [1]
Cc1cccc(Nc2ncnc3ccc(N(C)C(=O)N(CCCl)N=O)cc23)c1 | 16.5 µM | –
CN(C(=O)N(CCCl)N=O)c1ccc2ncnc(Nc3cccc(Br)c3)c2c1 | 10.8 µM | 0.294 µM
CNc1ccc2ncnc(Nc3cccc(C)c3)c2c1 | 42.8 µM | 0.011 µM
Nc1ccc2ncnc(Nc3cccc(Br)c3)c2c1 | 26.7 µM | –
CN(C(=O)N(CCCl)N=O)c1ccc2ncnc(Nc3cccc(Cl)c3)c2c1 | 11.7 µM | 0.204 µM
Nc1ccc2ncnc(Nc3cccc(Cl)c3)c2c1 | 97 µM | –
CNc1ccc2ncnc(Nc3cccc(Br)c3)c2c1 | 17.6 µM | 0.005 µM
O=NN(CCCl)C(=O)Nc1ccc2ncnc(Nc3cccc(Br)c3)c2c1 | 36.4 µM | 0.047 µM
O=C(NCCCl)Nc1ccc2ncnc(Nc3cccc(Br)c3)c2c1 | 35.9 µM | 0.018 µM
Cc1cccc(Nc2ncnc3ccc(N)cc23)c1 | 44.2 µM | –
Cc1cccc(Nc2ncnc3ccc(NC(=O)NCCCl)cc23)c1 | 31 µM | 0.676 µM
O=NN(CCCl)C(=O)Nc1ccc2ncnc(Nc3cccc(Cl)c3)c2c1 | 157 µM | –
CNc1ccc2ncnc(Nc3cccc(Cl)c3)c2c1 | 49.8 µM | 0.004 µM
Cc1cccc(Nc2ncnc3ccc(NC(=O)N(CCCl)N=O)cc23)c1 | 78.5 µM | 1.06 µM
O=C(NCCCl)Nc1ccc2ncnc(Nc3cccc(Cl)c3)c2c1 | 157 µM | 0.022 µM
